Results published in PMC9298352, “Design, Synthesis and Structural Analysis of Glucocerebrosidase Imaging Agents” (Chemistry (Weinheim an Der Bergstrasse, Germany), 2021).
Read-outs that look alike come from different tables or passages of the source.

Tests used:
Format in all cases: biochemical
[1] = molecular target: T1, recombinant human GBA (rhGBA, Imiglucerase) (Homo sapiens, UniProt P04062, R534H); assay: In vitro apparent IC50, fluorogenic substrate assay on rhGBA
T1 construct: purchased Sanofi Genzyme (Cambridge, MA, USA)
T1 sequence (P04062 40-536 R534H): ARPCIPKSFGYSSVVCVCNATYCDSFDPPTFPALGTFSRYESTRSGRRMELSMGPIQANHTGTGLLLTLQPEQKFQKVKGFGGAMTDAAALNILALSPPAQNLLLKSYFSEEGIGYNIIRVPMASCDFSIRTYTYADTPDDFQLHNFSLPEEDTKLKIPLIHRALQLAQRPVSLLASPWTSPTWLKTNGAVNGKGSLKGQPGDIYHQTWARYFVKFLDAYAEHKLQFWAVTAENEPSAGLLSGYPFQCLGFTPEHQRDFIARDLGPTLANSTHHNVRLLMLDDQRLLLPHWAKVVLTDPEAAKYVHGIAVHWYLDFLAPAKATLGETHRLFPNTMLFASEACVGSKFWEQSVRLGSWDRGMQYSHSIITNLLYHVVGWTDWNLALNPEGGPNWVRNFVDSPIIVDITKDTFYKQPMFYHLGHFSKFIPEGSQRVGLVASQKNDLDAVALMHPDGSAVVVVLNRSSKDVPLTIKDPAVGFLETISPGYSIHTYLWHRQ
Description: All assays were performed in duplicate sets, each with 3 technical replicates at each inhibitor concentration. DMSO concentration was kept at 0.5 %–1 % (v/v) in all assays during incubation with compounds. In vitro apparent IC50 values were calculated by fitting data with [inhibitor] vs. response‐various slope (four parameters) function using Graphpad Prism 7.0 software. Average values and standard deviations were calculated from the two sets.

[2] = molecular target: T2, GBA in mouse brain lysate (Mus musculus, UniProt P17439); assay: Fluorescent labeling of mouse brain lysate, GBA; details: 37 °C
T2 construct: from tissue; host or cells: mouse brain
T2 sequence (P17439 20-515): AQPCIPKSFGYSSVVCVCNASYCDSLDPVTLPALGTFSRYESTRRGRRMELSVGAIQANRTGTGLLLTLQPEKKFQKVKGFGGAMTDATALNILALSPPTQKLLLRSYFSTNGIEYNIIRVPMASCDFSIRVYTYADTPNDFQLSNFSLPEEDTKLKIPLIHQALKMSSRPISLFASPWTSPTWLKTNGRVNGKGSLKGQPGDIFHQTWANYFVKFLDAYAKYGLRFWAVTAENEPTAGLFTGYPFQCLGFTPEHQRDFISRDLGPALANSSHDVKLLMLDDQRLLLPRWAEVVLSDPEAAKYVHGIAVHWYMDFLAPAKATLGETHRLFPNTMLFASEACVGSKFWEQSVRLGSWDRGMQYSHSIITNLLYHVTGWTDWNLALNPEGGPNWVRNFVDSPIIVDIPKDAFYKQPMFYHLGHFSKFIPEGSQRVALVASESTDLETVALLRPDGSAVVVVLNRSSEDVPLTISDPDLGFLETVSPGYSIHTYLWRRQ
Description: (§1) We next investigated their labeling efficiency and selectivity toward GBA in mouse brain lysate at pH 5.2 (containing 0.2 % taurocholate and 0.1 % Triton‐100) and pH 5.8 as respective optimal conditions for GBA and GBA2 activities (Figure 7). […] Importantly, no labelling of GBA2 was observed up to 1000 nM, showing good GBA selectivity.
(§2) Labeling by broad‐spectrum β‐glucosidase ABP 8 is shown for comparison (100 nM, pH 5.2 or pH 5.8, 30 min, 37 °C).
(§3) Fluorescent labeling with broad‐spectrum ABP 8 was performed at 100 nM ABP concentration at 37 °C for 30 min at pH 5.2 (with 0.1 % (v/v) Triton X‐100 and 0.2 % (w/v) sodium taurocholate) or pH 5.8 respectively. Samples were then denatured with 4 μL Laemmli (5x) sample buffer and heated at 98 °C for 5 minutes. Proteins were resolved by electrophoresis in 10 % SDS‐PAGE gels, running at a constant of 90 V for 30 minutes followed by 120 V for approximately 60 minutes. Wet slab gels were scanned on fluorescence using a Typhoon FLA9500 Imager (GE Healthcare) using λEX 635 nm; λEM >665 nm and images were processed using ImageLab 5.2.1 (BioRad).

[3] = molecular target: T3, GBA2 in mouse brain lysate (Mus musculus, UniProt Q69ZF3); assay: Fluorescent labeling of mouse brain lysate, GBA2; details: 30 min, 37 °C
T3 construct: from tissue; host or cells: mouse brain
T3 sequence (Q69ZF3 1-918): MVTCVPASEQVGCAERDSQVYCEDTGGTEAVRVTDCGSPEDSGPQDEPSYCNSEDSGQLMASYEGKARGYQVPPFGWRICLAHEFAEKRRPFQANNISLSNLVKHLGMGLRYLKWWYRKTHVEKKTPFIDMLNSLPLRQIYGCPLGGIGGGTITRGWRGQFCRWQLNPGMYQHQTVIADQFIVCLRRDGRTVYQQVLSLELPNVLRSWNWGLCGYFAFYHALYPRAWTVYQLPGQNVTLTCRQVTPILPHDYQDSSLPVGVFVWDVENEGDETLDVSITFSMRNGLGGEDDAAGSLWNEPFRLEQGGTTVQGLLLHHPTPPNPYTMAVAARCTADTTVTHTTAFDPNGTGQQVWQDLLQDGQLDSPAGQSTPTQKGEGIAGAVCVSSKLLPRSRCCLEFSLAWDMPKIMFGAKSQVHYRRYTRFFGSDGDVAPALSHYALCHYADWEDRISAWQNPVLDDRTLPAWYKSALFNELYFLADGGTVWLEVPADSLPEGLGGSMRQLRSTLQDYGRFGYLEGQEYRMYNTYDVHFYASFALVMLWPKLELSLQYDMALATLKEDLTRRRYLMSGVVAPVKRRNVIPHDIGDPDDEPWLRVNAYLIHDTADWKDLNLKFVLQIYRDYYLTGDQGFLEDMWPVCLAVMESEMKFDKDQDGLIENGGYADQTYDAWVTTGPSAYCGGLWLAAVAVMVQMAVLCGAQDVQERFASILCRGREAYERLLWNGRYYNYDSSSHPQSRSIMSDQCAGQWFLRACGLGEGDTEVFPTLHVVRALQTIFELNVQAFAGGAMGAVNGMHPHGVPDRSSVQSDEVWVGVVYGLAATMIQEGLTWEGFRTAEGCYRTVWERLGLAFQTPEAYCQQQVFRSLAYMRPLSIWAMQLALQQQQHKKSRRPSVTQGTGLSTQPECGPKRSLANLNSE
Description: as §1, §2, §3

CCCCCCCCN1[C@@H]2[C@H](Cn3cc(CNC(=O)CCCCC[N+]4=C(/C=C/C=C/C=C5/N(C)c6ccccc6C5(C)C)C(C)(C)c5ccccc54)nn3)[C@@H](O)[C@H](O)[C@@H](O)[C@@H]21 (some centres unmarked) [ABP 6]
IC50 ([1]; 3 hr pre-incubation, read-out: apparent IC50 value, GBA): 53 nM
IC50 ([1]; apparent IC50, 3 h pre-incubation, 4-methylumbelliferyl-β-glucoside substrate, ± SD from technical duplicates, read-out: In vitro rhGBA IC50): 53.1 ± 2.65 nM
ABP concentration with significant labeling of GBA ([2]; pH 5.2 with 0.2 % taurocholate and 0.1 % Triton, 30 min): 10 nM
ABP concentration with significant labeling of GBA ([2]; pH 5.8, 30 min): 1000 nM
ABP concentration up to which no labelling of GBA2 was observed [3]: > 1000 nM
